Measured values as given in ChEMBL document CHEMBL3882388, “Pharmaceutical Compositions Comprising Beta-Lactam Antibiotic, Sulbactam and Beta-Lactamase Inhibitor” (2014).

How the values were obtained:
[1] = target: Beta-lactamase (Acinetobacter baumannii) (UniProt Q8RLA6); experiment: Inhibition of beta-lactamase in extended-spectrum b-lactamase producing Acinetobacter baumannii S-8 assessed as potentiation of cefepime-induced antibacterial activity by measuring cefepime MIC at 4 to 8 ug/ml incubated for 16 to 20 hrs by CLSI method
[2] = target: Beta-lactamase (Acinetobacter baumannii) (UniProt Q8RLA6); experiment: Inhibition of beta-lactamase in extended-spectrum b-lactamase producing Acinetobacter baumannii NCTC 13301 assessed as potentiation of cefpirome-induced antibacterial activity by measuring cefpirome MIC at 4 to 8 ug/ml incubated for 16 to 20 hrs by CLSI method
[3] = target: Beta-lactamase (Acinetobacter baumannii) (UniProt Q8RLA6); experiment: Inhibition of beta-lactamase in extended-spectrum b-lactamase producing Acinetobacter baumannii S-8 assessed as potentiation of cefpirome-induced antibacterial activity by measuring cefpirome MIC at 4 to 8 ug/ml incubated for 16 to 20 hrs by CLSI method
[4] = target: Beta-lactamase (Acinetobacter baumannii) (UniProt Q8RLA6); experiment: Inhibition of beta-lactamase in extended-spectrum b-lactamase producing Acinetobacter baumannii NCTC 13304 assessed as potentiation of cefepime-induced antibacterial activity by measuring cefepime MIC at 4 to 8 ug/ml incubated for 16 to 20 hrs by CLSI method
[5] = target: Beta-lactamase (Acinetobacter baumannii) (UniProt Q8RLA6); experiment: Inhibition of beta-lactamase in extended-spectrum b-lactamase producing Acinetobacter baumannii NCTC 13305 assessed as potentiation of cefpirome-induced antibacterial activity by measuring cefpirome MIC at 4 to 8 ug/ml incubated for 16 to 20 hrs by CLSI method
[6] = target: Beta-lactamase (Acinetobacter baumannii) (UniProt Q8RLA6); experiment: Inhibition of beta-lactamase in extended-spectrum b-lactamase producing Acinetobacter baumannii S-4 assessed as potentiation of cefepime-induced antibacterial activity by measuring cefepime MIC at 4 to 8 ug/ml incubated for 16 to 20 hrs by CLSI method
[7] = target: Beta-lactamase (Acinetobacter baumannii) (UniProt Q8RLA6); experiment: Inhibition of beta-lactamase in extended-spectrum b-lactamase producing Acinetobacter baumannii S-3 assessed as potentiation of cefepime-induced antibacterial activity by measuring cefepime MIC at 4 to 8 ug/ml incubated for 16 to 20 hrs by CLSI method
[8] = target: Beta-lactamase (Acinetobacter baumannii) (UniProt Q8RLA6); experiment: Inhibition of beta-lactamase in extended-spectrum b-lactamase producing Acinetobacter baumannii S-15 assessed as potentiation of cefepime-induced antibacterial activity by measuring cefepime MIC at 4 to 8 ug/ml incubated for 16 to 20 hrs by CLSI method
[9] = target: Beta-lactamase (Acinetobacter baumannii) (UniProt Q8RLA6); experiment: Inhibition of beta-lactamase in extended-spectrum b-lactamase producing Acinetobacter baumannii S-10 assessed as potentiation of cefpirome-induced antibacterial activity by measuring cefpirome MIC at 4 to 8 ug/ml incubated for 16 to 20 hrs by CLSI method
[10] = target: Beta-lactamase (Acinetobacter baumannii) (UniProt Q8RLA6); experiment: Inhibition of beta-lactamase in extended-spectrum b-lactamase producing Acinetobacter baumannii NCTC 13301 assessed as potentiation of cefepime-induced antibacterial activity by measuring cefepime MIC at 4 to 8 ug/ml incubated for 16 to 20 hrs by CLSI method
[11] = target: Beta-lactamase (Acinetobacter baumannii) (UniProt Q8RLA6); experiment: Inhibition of beta-lactamase in extended-spectrum b-lactamase producing Acinetobacter baumannii NCTC 13304 assessed as potentiation of cefpirome-induced antibacterial activity by measuring cefpirome MIC at 4 to 8 ug/ml incubated for 16 to 20 hrs by CLSI method
[12] = target: Beta-lactamase (Acinetobacter baumannii) (UniProt Q8RLA6); experiment: Inhibition of beta-lactamase in extended-spectrum b-lactamase producing Acinetobacter baumannii S-15 assessed as potentiation of cefpirome-induced antibacterial activity by measuring cefpirome MIC at 4 to 8 ug/ml incubated for 16 to 20 hrs by CLSI method
[13] = target: Beta-lactamase (Acinetobacter baumannii) (UniProt Q8RLA6); experiment: Inhibition of beta-lactamase in extended-spectrum b-lactamase producing Acinetobacter baumannii S-4 assessed as potentiation of cefpirome-induced antibacterial activity by measuring cefpirome MIC at 4 to 8 ug/ml incubated for 16 to 20 hrs by CLSI method
[14] = target: Beta-lactamase (Acinetobacter baumannii) (UniProt Q8RLA6); experiment: Inhibition of beta-lactamase in extended-spectrum b-lactamase producing Acinetobacter baumannii NCTC 13305 assessed as potentiation of cefepime-induced antibacterial activity by measuring cefepime MIC at 4 to 8 ug/ml incubated for 16 to 20 hrs by CLSI method
[15] = target: Beta-lactamase (Acinetobacter baumannii) (UniProt Q8RLA6); experiment: Inhibition of beta-lactamase in extended-spectrum b-lactamase producing Acinetobacter baumannii S-3 assessed as potentiation of cefpirome-induced antibacterial activity by measuring cefpirome MIC at 4 to 8 ug/ml incubated for 16 to 20 hrs by CLSI method
[16] = target: Beta-lactamase (Acinetobacter baumannii) (UniProt Q8RLA6); experiment: Inhibition of beta-lactamase in extended-spectrum b-lactamase producing Acinetobacter baumannii S-10 assessed as potentiation of cefepime-induced antibacterial activity by measuring cefepime MIC at 4 to 8 ug/ml incubated for 16 to 20 hrs by CLSI method

Chain of Beta-lactamase (Acinetobacter baumannii) (Q8RLA6 as listed by the source): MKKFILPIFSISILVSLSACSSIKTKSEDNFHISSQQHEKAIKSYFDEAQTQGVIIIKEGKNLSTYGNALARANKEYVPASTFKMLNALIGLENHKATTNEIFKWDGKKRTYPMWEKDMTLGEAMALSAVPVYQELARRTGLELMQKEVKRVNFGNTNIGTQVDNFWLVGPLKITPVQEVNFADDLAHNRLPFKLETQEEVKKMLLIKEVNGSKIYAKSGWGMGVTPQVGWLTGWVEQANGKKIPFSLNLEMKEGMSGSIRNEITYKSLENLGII

CC1(C)[C@H](C(=O)O)N2C(=O)C[C@H]2S1(=O)=O
MIC [1]: 32 µg/mL
MIC [2]: > 32 µg/mL
MIC [3]: 32 µg/mL
MIC [4]: > 32 µg/mL
MIC [5]: 8 µg/mL
MIC [6]: > 32 µg/mL
MIC [7]: > 32 µg/mL
MIC [8]: > 32 µg/mL
MIC [9]: > 32 µg/mL
MIC [10]: > 32 µg/mL
MIC [11]: 32 µg/mL
MIC [12]: 32 µg/mL
MIC [13]: > 32 µg/mL
MIC [14]: 4 µg/mL
MIC [15]: > 32 µg/mL
MIC [16]: > 32 µg/mL
